Reference: paper PMC11148114 (FEBS Open Bio, 2024)

Tests used:
[1] = biological target: T1, Staphylococcus aureus lipase (SAL) (Staphylococcus aureus, UniProt A0A0U1MWF9); test: p-nitrophenyl butyrate hydrolysis, absorbance […] nm; assay type: biochemical
T1 construct: gene lip; one Ca and one Zn per monomer

[2] = biological target: Staphylococcus aureus lipase (Staphylococcus aureus); test: SEC + other: SEC-SAXS

Molecule	IC50 [1] [µM]	stoichiometry N [2]
CCCCCCCCCCC/C=C\CCCCC(=O)O [PSA, petroselinic acid]	3.4	
CCCCCCCCCCC/C=C\CCCCC(=O)OC [PSM, petroselinic acid methyl ester]	10.5	
Staphylococcus aureus lipase (from UniProt A0A1R3UHM3 1-645) (enzyme)		2
